Test results published in PubChem BioAssay AID1963853 (Molecular Pharmacology Branch, DTP, NCI, 2024).

Tested on: 266295-075-R-J1-PDC spheroid viability
Experiment: Anticancer human tumor 266295-075-R-J1-PDC patient-derived head and neck squamous carcinoma cell line growth inhibition [POLQ]
Settings: spheroids with HUVEC and MSC; for IC50: curve of first compound; for viability, T/C: stronger effect = lower value
Procedure: Multicellular complex tumor spheroid response to Polymerase (POL) inhibitors (novobiocin, ART-558, RP6685) in combination with a variety of drugs and investigational agents in selected tumor cell lines
The POL inhibitors (novobiocin, ART-558, and RP6685) were evaluated both individually and in combination with standard of care and investigational anticancer small molecules within a complex spheroid model of solid tumors. . Complex spheroids include a stromal component modeled by human endothelial cells (HUVEC) and fibroblasts modeled by human mesenchymal stem cells (MSCs). The concentration ranges selected for each drug and investigational agent were based upon clinically achievable concentrations if the clinical Cmax of the agent was known.
Compounds. The drugs and investigational agents: novobiocin (NSC847541), ART-558 (NSC835418), RP-6685 (NSC848927), peposertib (NSC802822), ceralasertib (NSC780249), elimusertib (NSC800525), camonsertib (NSC841442), AZD-1390 (NSC803789), olaparib (NSC753686), talazoparib (NSC767125), rucaparib (NSC756644), sotorasib (NSC818433), MRTX-1133 (NSC836407), SN-38 (NSC673596), topotecan (NSC609699), epotoside (NSC141540), doxorubicin (NSC123127), gemcitabine (NSC613327), 5-fluorouracil (NSC19893), paclitaxel (NSC125973), vemurafenib (NSC761431), MSA-2 (NSC828583), SN-011 (NSC837082), adavosertib (NSC754352), prexasertib (NSC758257), carboplatin (NSC241240) and oxaliplatin (NSC266046), were obtained from the National Cancer Institute (NCI) Developmental Therapeutics Program Chemical Repository (21). The FDA-approved anticancer drug set is available from the Developmental Therapeutics Program at https://dtp.cancer.gov/organization/dscb/obtaining/. […] The stock solutions were prepared in dimethyl sulfoxide (DMSO, Sigma-Aldrich, St. Louis, MO, cat. D2650), except for the platinum compounds which were prepared in saline (Quality Biological, Gaithersburg, MD, cat. 114-055-101), at 800-fold the tested concentration and stored at -70 degrees C prior to their use. All drugs and investigational agents were tested over a range starting from a high concentration at or near the clinical Cmax and decreasing in half-log increments. If the clinical Cmax for an agent had not been determined, the highest concentration tested was 10 microM, except for SN-38, which was tested at a high concentration of 1 microM.
Cell Culture. All cells were maintained in an incubator at 37 degrees C and 5% CO2 with 95% humidity. The PDC lines were cultured according to standard operating procedures established by the NCI PDMR (https://pdmr.cancer.gov). Table 3 of the manuscript, lists the cell lines along with the number of the three cell types plated to form the mct-spheroids and media for tumor cell growth. After thawing, all PDC lines, except 997537-175-T-J1-PDC and 415267-285-R-J2-PDC, were cultured in Matrigel-coated flasks prepared with a working solution of 1X Ham's F-12 nutrient mix, without supplementation (Thermo Fisher Scientific, cat. 11765054), 100 U/mL penicillin-streptomycin (Thermo Fisher Scientific, cat. 15140122), and 2.5% Matrigel (Corning Inc., Corning, NY, cat. 354248) for the first three passages. The two PDC lines 997537-175-T-J1-PDC and 415267-285-R-J2-PDC were cultured on uncoated flasks. The 857933-349-R-J2-PDC line was cultured in 6C/Colon 1B media containing advanced DMEM/F-12 (Thermo Fisher Scientific, cat. 12634028), 10 mM HEPES (Thermo Fisher Scientific, cat. 15630080), 1X GlutaMAX supplement (Thermo Fisher Scientific, cat. 35050061), 0.1 mg/mL primocin (InvivoGen, San Diego, CA, cat. ant-pm-2), 10% defined fetal bovine serum, heat inactivated (HyClone Laboratories Inc., Logan, UT, cat. SH30070.03HI), 50% L-WRN conditioned media (ATCC, cat. CRL-3276), 1.25 mM N-Acetyl-L-cysteine (Sigma-Aldrich, cat. A9165), 10 mM nicotinamide (Sigma-Aldrich, cat. N0636), 1X B-27 supplement (Thermo Fisher Scientific, cat. 17504044), 1X N-2 supplement (Thermo Fisher Scientific, cat. […]

[1] = second compound 0.0316 µM, first compound 0.0316 µM
[2] = second compound 0.0316 µM, first compound 0.1 µM
[3] = second compound 0.0316 µM, first compound 0.316 µM
[4] = second compound 0.0316 µM, first compound 1 µM
[5] = second compound 0.0316 µM, first compound 3.16 µM
[6] = second compound 0.0316 µM, first compound 10 µM
[7] = second compound 0.1 µM, first compound 0.0316 µM
[8] = second compound 0.1 µM, first compound 0.1 µM
[9] = second compound 0.1 µM, first compound 0.316 µM
[10] = second compound 0.1 µM, first compound 1 µM
[11] = second compound 0.1 µM, first compound 3.16 µM
[12] = second compound 0.1 µM, first compound 10 µM
[13] = second compound 0.316 µM, first compound 0.0316 µM
[14] = second compound 0.316 µM, first compound 0.1 µM
[15] = second compound 0.316 µM, first compound 0.316 µM
[16] = second compound 0.316 µM, first compound 1 µM
[17] = second compound 0.316 µM, first compound 3.16 µM
[18] = second compound 0.316 µM, first compound 10 µM
[19] = second compound 1 µM, first compound 0.0316 µM
[20] = second compound 1 µM, first compound 0.1 µM
[21] = second compound 1 µM, first compound 0.316 µM
[22] = second compound 1 µM, first compound 1 µM
[23] = second compound 1 µM, first compound 3.16 µM
[24] = second compound 1 µM, first compound 10 µM
[25] = second compound 3.16 µM, first compound 0.0316 µM
[26] = second compound 3.16 µM, first compound 0.1 µM
[27] = second compound 3.16 µM, first compound 0.316 µM
[28] = second compound 3.16 µM, first compound 1 µM
[29] = second compound 3.16 µM, first compound 3.16 µM
[30] = second compound 3.16 µM, first compound 10 µM
[31] = second compound 10 µM, first compound 0.0316 µM
[32] = second compound 10 µM, first compound 0.1 µM
[33] = second compound 10 µM, first compound 0.316 µM
[34] = second compound 10 µM, first compound 1 µM
[35] = second compound 10 µM, first compound 3.16 µM
[36] = second compound 10 µM, first compound 10 µM
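Further: spheroids exposed to compounds for seven days before readout.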

`CCc1cc2c(N3CCc4c(cc(Cn5ccnc5)cc4-c4cn(C)nc4C(F)(F)F)C3=O)ccnc2c(OC)n1` + Cc1cccc(N(C)C(=O)C2C(O)CCN2c2nc(C)cc(C(F)(F)F)c2C#N)c1 was tested, and the IC50 (second compound 0.0316 µM) was greater than 10 µM, the IC50 (second compound 0.1 µM) was greater than 10 µM and the IC50 (second compound 0.316 µM) was greater than 10 µM. The IC50 (second compound 1 µM) was greater than 10 µM, the IC50 (second compound 3.16 µM) was greater than 10 µM and the IC50 (second compound 10 µM) was greater than 10 µM. It also gave a viability, T/C [1] of 90.4%, a viability, T/C [2] of 101% and a viability, T/C [3] of 78.6%. It also gave a viability, T/C [4] of 115%, a viability, T/C [5] of 138% and a viability, T/C [6] of 126%. The viability, T/C [7] was 98.6%, the viability, T/C [8] was 90% and the viability, T/C [9] was 105%. For the same molecule, the viability, T/C [10] was 99.6%, the viability, T/C [11] was 119% and the viability, T/C [12] was 124%. It also gave a viability, T/C [13] of 119%, a viability, T/C [14] of 102% and a viability, T/C [15] of 80.3%. It also gave a viability, T/C [16] of 92.8%, a viability, T/C [17] of 130% and a viability, T/C [18] of 104%. The viability, T/C [19] was 86.7%, the viability, T/C [20] was 105% and the viability, T/C [21] was 90.6%. The viability, T/C [22] was 110%, the viability, T/C [23] was 141% and the viability, T/C [24] was 104%. The viability, T/C [25] was 107%, the viability, T/C [26] was 82.1% and the viability, T/C [27] was 104%. The viability, T/C [28] was 103%, the viability, T/C [29] was 122% and the viability, T/C [30] was 118%. It also gave a viability, T/C [31] of 97.8%, a viability, T/C [32] of 90.6% and a viability, T/C [33] of 110%. For the same molecule, the viability, T/C [34] was 132%, the viability, T/C [35] was 127% and the viability, T/C [36] was 144%.

`COc1cccc2c1C(=O)c1c(O)c3c(c(O)c1C2=O)CC(O)(C(=O)CO)CC3OC1CC(N)C(O)C(C)O1` (centres undefined) + Cc1cccc(N(C)C(=O)C2C(O)CCN2c2nc(C)cc(C(F)(F)F)c2C#N)c1 showed an IC50 (second compound 0.0316 µM) of 1.58 µM, an IC50 (second compound 0.1 µM) of 1.6 µM and an IC50 (second compound 0.316 µM) of 1.35 µM. The IC50 (second compound 1 µM) was 1.35 µM, the IC50 (second compound 3.16 µM) was 1.12 µM and the IC50 (second compound 10 µM) was 0.838 µM. For the same molecule, the viability, T/C [1] was 69.3%, the viability, T/C [2] was 74.4% and the viability, T/C [3] was 65.8%. For the same molecule, the viability, T/C [4] was 59.6%, the viability, T/C [5] was 36.1% and the viability, T/C [6] was 1.6%. For the same molecule, the viability, T/C [7] was 79.5%, the viability, T/C [8] was 81.9% and the viability, T/C [9] was 61.6%. The viability, T/C [10] was 60.2%, the viability, T/C [11] was 40% and the viability, T/C [12] was 1.95%. For the same molecule, the viability, T/C [13] was 84.5%, the viability, T/C [14] was 76% and the viability, T/C [15] was 59.8%. For the same molecule, the viability, T/C [16] was 60.3%, the viability, T/C [17] was 36.1% and the viability, T/C [18] was 2.38%. It also gave a viability, T/C [19] of 85.1%, a viability, T/C [20] of 90.8% and a viability, T/C [21] of 79.4%. The viability, T/C [22] was 55.7%, the viability, T/C [23] was 28.3% and the viability, T/C [24] was 1.59%. It also gave a viability, T/C [25] of 81.1%, a viability, T/C [26] of 81.1% and a viability, T/C [27] of 61.6%. The viability, T/C [28] was 60.3%, the viability, T/C [29] was 19.1% and the viability, T/C [30] was 1.26%. For the same molecule, the viability, T/C [31] was 90.9%, the viability, T/C [32] was 84.6% and the viability, T/C [33] was 67.7%. It also gave a viability, T/C [34] of 52.3%, a viability, T/C [35] of 9.35% and a viability, T/C [36] of 1.42%.
